Assay results reported in US6489098B1, “Means and methods for monitoring nucleoside reverse transcriptase inhibitor antiretroviral therapy and guiding therapeutic decisions in the treatment of HIV/AIDS” (ViroLogic, Inc., priority 1998, dated 2002).
Several values for one entry are separate records, joined by “and”; a condition that tells them apart may be missing. Identical values can stand only once. Entries after “also recorded” stand apart in the source; their conditions may differ.

Key:
[1] = system: HIV-1 RT mutant resistance test vector 41 + 184 + 215; assay: Phenotypic susceptibility assay, site directed RTV 41 + 184 + 215; assay type: cell-based; details: RTV with 41 + 184 + 215; 3 replicates
Experimental: (§1) Resistance tests were carried out with resistance test vectors using two host cell types. Resistance test vector viral particles were produced by a first host cell (the resistance test vector host cell) that was prepared by transfecting a packaging host cell with the resistance test vector and the packaging expression vector. The resistance test vector viral particles were then used to infect a second host cell (the target host cell) in which the expression of the indicator gene is measured.
(§2) The resistance test vectors containing a functional luciferase gene cassette were constructed and host cells were transfected with the resistance test vector DNA. The resistant test vectors contained patient-derived reverse transcriptase and protease sequences that were either susceptible or resistant to the antiretroviral agents, such as nucleoside reverse transcriptase inhibitors, non-nucleoside reverse transcriptase inhibitors and protease inhibitors. The resistance test vector viral particles produced by transfecting the resistance test vector DNA into host cells, either in the presence or absence of protease inhibitors, were used to infect target host cells grown either in the absence of NRTI or NNRTI or In the presence of increasing concentrations of the drug. The amount of luciferase activIty produced in infected target host cells in the presence of drug was compared to the amount of luciferase produced in infected target host cells in the absence of drug. Drug resistance was measured as the amount of drug required to inhibit by 50% the luciferase activity detected in the absence of drug (Inhibitory concentration 50%, IC50). The IC50 values were determined by plotting percent drug inhibition vs. log 10 drug concentration.
(§3) Host cells were seeded in 10-cm-diameter dishes and were transfected several days after plating with resistance test vector plasmid DNA and the envelope expression vector. Transfections were performed using a calcium-phosphate precipitation procedure. The cell culture media containing the DNA precipitate was replaced with fresh medium, from one to 24 hours, after transfection. Cell culture media containing resistance test vector viral particles was harvested one to four days after transfection and was passed through a […] filter before being stored at −80° C. HIV capsid protein (p24) levels in the harvested cell culture media were determined by an EIA method as described by the manufacturer (SIAC; Frederick, Md.). Before infection, target cells (293 and 293/T) were plated in cell culture media. Control infections were performed using cell culture media from mock transfections (no DNA) or transfections containing the resistance test vector plasmid DNA without the envelope expression plasmid. One to three or more days after infectIon the media was removed and cell lysis buffer (Promega) was added to each well. Cell lysates were assayed for luciferase activity (FIG. 3). The inhibitory effect of the drug was determined using the following equation:
(§4) % luciferase inhibition=1−(RLUluc[drug]÷RLUluc)×100
(§5) where RLUluc [drug] is the relative light unit of luciferase activity in infected cells in the presence of drug and RLUluc is the Relative Light Unit of luciferase activity in infected cells in the absence of drug. IC50 values were obtained from the sigmoidal curves that were generated from the data by plotting the percent inhibition of luciferase activity vs. the log 10 drug concentration. The drug inhibition curves are shown in (FIG. 3).
(§6) Genotypic changes that are observed to correlate with changes in phenotypic patterns of drug susceptibility are evaluated by construction of resistance test vectors containing the specific mutation on a defined, wild-type (drug susceptible) genetic background. Mutations may be incorporated alone and/or in combination with other known drug resistance mutations that are thought to modulate the susceptibility of HIV to a certain drug or class of drugs. […]

[2] = system: HIV strains resistant to abacavir; details: cited from earlier work
[3] = system: HIV-1 RT mutant resistance test vector 41 + 62 + 69 + 75M + 210 + 215; assay: Phenotypic susceptibility assay, site directed RTV 41 + 62 + 69 + 75M + 210 + 215; assay type: cell-based; details: RTV with 41 + 62 + 69 + 75M + 210 + 215; 1 replicate
Experimental: as §1, §2, §3, §4, §5, §6

[4] = system: HIV-1 RT mutant resistance test vector A62V+T69SSA+V75I; assay: Phenotypic susceptibility assay, site directed RTV A62V+T69SSA+V75I; assay type: cell-based; details: for Average fold reduction in susceptibility: RTV with 62 + 69 + 751 (A62V, T69SSA, V75I), 1 replicate; for effect on susceptibility (words): RTV with A62V+T69SSA+V75I
Experimental: as §1, §2, §3, §4, §5, §6

[5] = system: HIV-1 RT mutant resistance test vector 41 + 62 + 69 + 75S + 210 + 215; assay: Phenotypic susceptibility assay, site directed RTV 41 + 62 + 69 + 75S + 210 + 215; assay type: cell-based; details: RTV with 41 + 62 + 69 + 75S + 210 + 215; 1 replicate
Experimental: as §1, §2, §3, §4, §5, §6

[6] = system: HIV-1 RT mutant resistance test vector A62V; assay: Phenotypic susceptibility assay, site directed RTV A62V; assay type: cell-based; details: RTV with A62V vs wild type RTV; for Average fold reduction in susceptibility: 3 replicates
Experimental: as §1, §2, §3, §4, §5, §6

[7] = system: HIV-1 RT mutant resistance test vector T69SSA; assay: Phenotypic susceptibility assay, site directed RTV T69SSA; assay type: cell-based; details: RTV with T69SSA vs wild type RTV; for Average fold reduction in susceptibility: 3 replicates
Experimental: as §1, §2, §3, §4, §5, §6

[8] = system: HIV-1 RT mutant resistance test vector A62V-T69SSA-L74V-RTV; assay: Phenotypic susceptibility assay, site directed RTV A62V-T69SSA-L74V; assay type: cell-based; details: for Average fold reduction in susceptibility: RTV with 62 + 69 + 74V, 1 replicate
Experimental: as §1, §2
as §3, with “Cell lysates were assayed for luciferase activity (FIG. 3).” left out
as §4
where RLUluc [drug] is the relative light unit of luciferase activity in infected cells in the presence of drug and RLUluc is the Relative Light Unit of luciferase activity in infected cells in the absence of drug. IC50 values were obtained from the sigmoidal curves that were generated from the data by plotting the percent inhibition of luciferase activity vs. the log 10 drug concentration. […]

[9] = system: HIV-1 RT mutant resistance test vector Q151M-RTV; assay: Phenotypic susceptibility assay, site directed RTV Q151M; assay type: cell-based; details: for effect on susceptibility (words): RTV with Q151M vs wild type RTV
Experimental: as §1, §2, §3
% luciferase inhibition=1−(RLUluc[drug]÷RLUluc)×100 […]
Genotypic changes that are observed to correlate with changes in phenotypic patterns of drug susceptibility are evaluated by construction of resistance test vectors containing the specific mutation on a defined, wild-type (drug susceptible) genetic background. […]

| Structure (SMILES) | Average fold reduction in susceptibility [1] [fold] | fold resistance ([2]; multiple mutations (at least three)) [fold] | Average fold reduction in susceptibility [3] [fold] | Average fold reduction in susceptibility [4] | Average fold reduction in susceptibility [5] [fold] | Average fold reduction in susceptibility [6] [fold] | Average fold reduction in susceptibility [7] | cross resistance of abacavir-resistant strains [2] | effect on susceptibility (words) ([8]; L74V introduced with A62V+T69SSA) | effect on susceptibility (words) [4] | effect on susceptibility (words) [6] | effect on susceptibility (words) [9] | effect on susceptibility (words) [7] | Average fold reduction in susceptibility [8] | fold reduction in susceptibility ([9]; RTV with Q151M vs control RTV) |
| --- | --- | --- | --- | --- | --- | --- | --- | --- | --- | --- | --- | --- | --- | --- | --- |
| Nc1nc(NC2CC2)c2ncn([C@H]3C=C[C@@H](CO)C3)c2n1 [ABC, abacavir] | 3.02 | 10 | 15.53 | 2.56 fold | 14.21 | 0.59 | 2.52 fold |  |  |  |  |  |  |  |  |
| Cc1cn([C@H]2C[C@H](N=[N+]=[N-])[C@@H](CO)O2)c(=O)[nH]c1=O [AZT, zidovudine] | 2.77 |  | >1000 | 2 fold and 0.71 fold | >1000 | 1.25 | approximately two-fold and 1.98 fold | not to d4T or ZDV | shift of the susceptibility back to wild-type | completely suppressed the reduced AZT susceptibility; also recorded: completely suppressed the six-fold AZT resistance | slight increases in susceptibility to AZT; also recorded: had no effect on AZT susceptibility; also recorded: had no affect on AZT susceptibility | Significant changes in susceptibility; also recorded: reduced d4T and AZT susceptibility | small but significant change in susceptibility; also recorded: reduced AZT susceptibility slightly |  |  |
| Cc1cn([C@H]2C=C[C@@H](CO)O2)c(=O)[nH]c1=O [d4T, stavudine] | 1.18 |  | 13.18 | 1.40 fold | 14.13 | 0.84 | 2 fold and less than two-fold and 1.58 fold | not to d4T or ZDV |  | did not reduce d4T susceptibility more than the T69SSA mutation alone | no differences in their susceptibility to d4T; also recorded: did not reduce d4T susceptibility; also recorded: had no affect on d4T susceptibility | less susceptible to d4T than the wild type control RTV; also recorded: reduced d4T and AZT susceptibility | did not reduce d4T susceptibility | 1.5 fold and 1.50 fold | approximately three-fold |
| Nc1ccn([C@H]2CC[C@@H](CO)O2)c(=O)n1 [ddC, zalcitabine] | 1.73 |  | 2.09 | 1.89 fold | 2.58 | 0.74 | 1.55 fold | Cross resistance |  |  |  | Significant changes in susceptibility |  | 1.8 fold and 1.80 fold |  |
| O=c1[nH]cnc2c1ncn2[C@H]1CC[C@@H](CO)O1 [ddI, didanosine] | 1.35 |  | 3.10 | 1.17 fold | 5.12 | 0.84 | 1.32 fold | Cross resistance |  |  |  | Significant changes in susceptibility |  |  |  |
